Reference: patent US6060608A, “Analogs of CC-1065 and the duocarmycins” (The Scripps Research Institute, priority 1999, dated 2000)

How the values were obtained:
w794 duplex DNA [1] = details: unnatural enantiomers; prior comparison; cited from earlier work
DNA [2] = details: cited from earlier work
[3] = In vitro cytotoxic activity (cell line not given); type: cell-based
[4] = system: w794 DNA, 5'-AATTA high affinity site; assay: Relative rate of DNA alkylation at the w794 5'-AATTA high affinity site; type: biochemical, SV40; details: 10^-5 M, 25° C., 1-72 h
w794 duplex DNA [5] = assay: DNA alkylation selectivity and efficiency within w794 DNA, thermally-induced strand cleavage and PAGE; type: biochemical, SV40
In short: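 5′-32P end-labeled w794 duplex DNA in TE buffer (pH 7.2–7.5) incubated with agent in DMSO across concentrations, 4–37 °C for 24–76 h depending on agent. Unbound agent removed by EtOH precipitation; thermolysis 100 °C, 30 min cleaves alkylation sites, mapped by denaturing 8% PAGE beside Sanger standards and autoradiography.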

[6] = system: w794 DNA, 5'-AATTA high affinity site; details: 4° C., earlier studies, 1.8:1.0:0.9; cited from earlier work
[7] = system: w794 DNA, 5'-AATTA high affinity site; assay: Relative rate of DNA alkylation at the w794 5'-AATTA high affinity site; type: biochemical, SV40; details: 25° C.
Procedure: Rate of DNA Alkylation. The relative rates of DNA alkylation for the natural enantiommers of CCBI-TMI (35) and CCBI-indole2 (37) versus those of the corresponding CBI and MCBI agents were measured at the single high affinity site in w794, 5'-AATTA. The relative rates earlier studies of DNA alkylation for MCBI-TMI, CBI-TMI, and duocarmycin SA were determined to be quite similar at 4° C., 1.8:1.0:0.9, respectively. […] In prior studies, we have highlighted similar observations with agents that span a much larger range of relative reactivities.
The DNA alkylation selectivity and efficiency of the natural enantiomers of 304-307 were compared with that of 1 in w794 DNA. […] These trends in the overall efficiency of DNA alkylation parallel the relative trends in cytotoxic potency.
(§1) DNA Alkylation Relative Rate of (+)-CCBI-TMI (35), (+)-CBI-TMI, and (+)-MCBI-TMI. Following the procedure detailed above, Eppendorf tubes containing 5' end-labeled w794 DNA (9 μL) in TE buffer (pH 7.5) were treated with (+)-CCBI-TMI (35), (+)-CBI-TMI, or (+)-MCBI-TMI (1 μL, 10^-6 M in DMSO). The solutions were mixed and incubated at 25° C. for 2, 4, 6, 9, 12, 15, and 24 h, respectively. Subsequent isolation of the alkylated DNA by EtOH precipitation, resuspension in TE buffer (10 μL, pH 7.5), thermolysis (30 min, 100° C.), PAGE, and autoradiography were conducted as detailed above. Relative rates for alkylation at the w794 high-affinity 5'-AATTA site were derived from the slopes of the plots of percent integrated optical density (IOD) of the high-affinity alkylation cleavage bands versus time.
as §1, with “(+)-CCBI-indole2 (37), (+)-CBI-indole2,” for “(+)-CCBI-TMI (35), (+)-CBI-TMI,”, “(+)-MCBI-indole2.” for “(+)-MCBI-TMI.”, “(+)-CCBI-indole2 (37), (+)-CBI-indole2, and (+)-MCBI-indole2” for “(+)-CCBI-TMI (35), (+)-CBI-TMI, or (+)-MCBI-TMI”

[8] = in vivo; cited from earlier work
[9] = cited from earlier work
[10] = cited from earlier work; remark: listed apart in the source
DNA [11] = details: cited from earlier work; remark: listed apart in the source

COc1cc2cc(C(=O)N3CC4CC45C3=CC(=O)c3ccccc35)[nH]c2c(OC)c1OC (single isomer, unassigned; (-)) [(-)-CBI-TMI]
distinction in DNA alkylation efficiency from ent-(-)-duocarmycin SA (w794 duplex DNA [1]): 10 ×

COC(=O)[C@]1(C)NC2=C(C1=O)[C@@]13C[C@@H]1CN(C(=O)c1cc4cc(OC)c(OC)c(OC)c4[nH]1)C3=CC2=O [duocarmycin A]
adenine N3 adduct quantitated (DNA [2]): 86-92%

COC(=O)c1cc2c([nH]1)C(=O)C=C1N(C(=O)c3cc4cc(OC)ccc4[nH]3)CC3CC123 (single isomer, unassigned) [compound 305]
properties relative to duocarmycin SA or 304 [3]: indistinguishable | cytotoxic activity relative to duocarmycin SA or 304 (words) ([3]; listed as (+)-305): indistinguishable from duocarmycin SA | krel, faster than 304 [4]: 18-33 | DNA alkylation properties, comparison in words (w794 duplex DNA [5]): essentially indistinguishable from 1 itself

COC(=O)c1cc2c([nH]1)C(=O)C=C1N(C(=O)c3cc4cc(OC)c(OC)c(OC)c4[nH]3)CC3CC123 (stereo not drawn) [duocarmycin SA]
relative rate of DNA alkylation [6]: 0.9 | properties relative to duocarmycin SA or 304 [3]: indistinguishable | adenine N3 adduct quantitated (DNA [2]): 95-100% | relative rate of DNA alkylation, TMI series ([7]; 10^-6 M): 0.9 × | krel, 1 relative to 305 [4]: 1.3-2.3 | krel, faster than 304 [4]: 18-33 | DNA alkylation properties, comparison in words (w794 duplex DNA [5]): exhibited the same selectivity and efficiency of DNA alkylation | concentration of detectable alkylation of high affinity site 5'-AATTA (w794 duplex DNA [5]; 25° C., 24 h): 10^-6 to 10^-7 M

COc1c(O)c2c(c3cc(C(=O)N4CCc5c4c(O)c(OC)c4[nH]c(C(=O)N6CC7CC78C6=CC(=O)c6[nH]cc(C)c68)cc54)[nH]c13)CCN2C(N)=O (single isomer, unassigned; (+)) [(+)-CC-1065]
delayed toxicity [8]: delayed fatal toxicity

O=C(Nc1ccc2[nH]c(C(=O)N3CC4CC45C3=CC(=O)c3ccccc35)cc2c1)c1cc2ccccc2[nH]1 (single isomer, unassigned) [CBI-indole2]
in vivo antitumor activity [9]: potent and efficacious In vivo antitumor activity | cytotoxic potency greater than (+)-CPI-indole2 (U71,184) [10]: 4 × | relative rate of DNA alkylation, indole2 series [7]: 1.0 × | delayed toxicity [8]: lacked the delayed fatal toxicity

Cc1c(N)nc([C@H](CC(N)=O)NC[C@H](N)C(N)=O)nc1C(=O)N[C@H](C(=O)N[C@H](C)[C@@H](O)[C@H](C)C(=O)N[C@H](C(=O)NCCc1nc(-c2nc(C(=O)NCCC[S+](C)C)cs2)cs1)[C@@H](C)O)[C@@H](O[C@@H]1O[C@@H](CO)[C@@H](O)[C@H](O)[C@@H]1O[C@H]1O[C@H](CO)[C@@H](O)[C@H](OC(N)=O)[C@@H]1O)c1c[nH]cn1.[Br-] [compound 104]
apparent binding site size (DNA [11]): 3.8 base-pairs | Kd (DNA [11]; dna, read-out: apparent DNA binding constant Kapp): 10 µM
